In paper PMC4521081, “Thiophenecarboxamide Derivatives Activated by EthA Kill Mycobacterium tuberculosis by Inhibiting the CTP Synthetase PyrG” (Chemistry & Biology, 2015):
Values after ≈ are worked out from the molar mass of the structure shown.

How the values were obtained:
[1] = tested on: M. tuberculosis 82.19 (ethA L129P, pyrG V186G); assay type: cell-based, Mycobacterium tuberculosis
[2] = tested on: M. tuberculosis 82.14 (ethA W45R, pyrG V186G); assay type: cell-based, Mycobacterium tuberculosis
[3] = tested on: M. tuberculosis 88.10 (pyrG V186G); assay type: cell-based, Mycobacterium tuberculosis
[4] = tested on: M. tuberculosis 82.22 (ethA ΔT-94, pyrG V186G); assay type: cell-based, Mycobacterium tuberculosis
[5] = tested on: M. tuberculosis pyrG mutant 88.7 (V186G); assay type: cell-based, Mycobacterium tuberculosis
[6] = tested on: M. tuberculosis ethA mutant 81.10 (Δ1109–1137); assay type: cell-based, Mycobacterium tuberculosis
PyrG V186G mutant = PyrG V186G mutant (Mycobacterium tuberculosis, UniProt P9WHK7, V186G); assay type: biochemical, M. tuberculosis

Row | SMILES | MIC [1] [µg/mL] | MIC [2] [µg/mL] | MIC [3] [µg/mL] | MIC [4] [µg/mL] | MIC [5] [µg/mL] | resistance of 81.10 mutant (mutated in ethA gene) [6] | % of inhibition at 200 M PyrG V186G mutant (PyrG V186G mutant) [%] | activity against PyrG V186G mutant (PyrG V186G mutant) | MIC [6] [µg/mL]
1 | Cc1ccc(C(=O)Nc2ccc([N+](=O)[O-])cc2)s1 [compound 7947882, 5-methyl-N-(4-nitrophenyl)thiophene-2-carboxamide] | >40 | >40 | 5 to 10 | >40 | – | – | – | – | –
2 | Cc1ccc(C(=O)O)s1 [compound 11326028, 5-methylthiophene-2-carboxylic acid] | – | – | – | – | > 8 | resistant | – | – | –
3 | CC1=CC=C(C(=O)Nc2ccc([N+](=O)[O-])cc2)S1(=O)=O [compound 11426026] | – | – | – | – | 2.5 (≈ 8.5 µM) | – | 18.3 ± 1.5 | not active | 1 (≈ 3.4 µM)
4 | O=C(CCc1ccccc1)NC(=S)Nc1ccc(N2CCCCC2)cc1 [compound 7904688, 3-phenyl-N-[(4-piperidin-1-ylphenyl)carbamothioyl]propanamide] | >40 | >40 | 10 (≈ 27.2 µM) | >40 | 10 (≈ 27.2 µM) | – | – | – | >40
5 | CCc1cc(C(N)=S)ccn1 [ETH, ethionamide, reference compound] | 10 (≈ 60.2 µM) | 10 (≈ 60.2 µM) | 0.5 (≈ 3.01 µM) | 10 (≈ 60.2 µM) | 0.5 (≈ 3.01 µM) | – | – | – | 10 (≈ 60.2 µM)
6 | COc1ccc(NC(=O)c2cc([N+](=O)[O-])c(C)s2)cc1OC [compound 11326054] | – | – | – | – | > 8 | resistant | – | – | –
